Target: T1, vanilloid receptor (Rattus norvegicus, UniProt O35433)
T1 construct: DRG nerve cells from the primary culture of 2 days were equilibrated; endogenous in cells; host or cells: primary culture of dorsal root ganglion neurons from neonatal SD rats
Test: 45Ca influx test in cultured neonatal rat DRG neurons, inhibition of capsaicin response
Format: cell-based
Conditions: neonatal rat DRG neurons, capsaicin 0.5 μM, 45Ca influx; read-out: Antagonist Calcium Uptake Test (IC50)
Method in brief: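 Neonatal SD rat DRG neurons, cultured 2 days with NGF (200 ng/ml) and Ara-C, were washed in HEPES (10 mM, pH 7.4)-buffered Ca/Mg-free HBSS. Test compound was added with capsaicin (final 0.5 μM) and 45Ca (10 μCi/ml) for 10 min at room temperature; 45Ca uptake counted by scintillation after SDS elution.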

T1 sequence (O35433 whole entry): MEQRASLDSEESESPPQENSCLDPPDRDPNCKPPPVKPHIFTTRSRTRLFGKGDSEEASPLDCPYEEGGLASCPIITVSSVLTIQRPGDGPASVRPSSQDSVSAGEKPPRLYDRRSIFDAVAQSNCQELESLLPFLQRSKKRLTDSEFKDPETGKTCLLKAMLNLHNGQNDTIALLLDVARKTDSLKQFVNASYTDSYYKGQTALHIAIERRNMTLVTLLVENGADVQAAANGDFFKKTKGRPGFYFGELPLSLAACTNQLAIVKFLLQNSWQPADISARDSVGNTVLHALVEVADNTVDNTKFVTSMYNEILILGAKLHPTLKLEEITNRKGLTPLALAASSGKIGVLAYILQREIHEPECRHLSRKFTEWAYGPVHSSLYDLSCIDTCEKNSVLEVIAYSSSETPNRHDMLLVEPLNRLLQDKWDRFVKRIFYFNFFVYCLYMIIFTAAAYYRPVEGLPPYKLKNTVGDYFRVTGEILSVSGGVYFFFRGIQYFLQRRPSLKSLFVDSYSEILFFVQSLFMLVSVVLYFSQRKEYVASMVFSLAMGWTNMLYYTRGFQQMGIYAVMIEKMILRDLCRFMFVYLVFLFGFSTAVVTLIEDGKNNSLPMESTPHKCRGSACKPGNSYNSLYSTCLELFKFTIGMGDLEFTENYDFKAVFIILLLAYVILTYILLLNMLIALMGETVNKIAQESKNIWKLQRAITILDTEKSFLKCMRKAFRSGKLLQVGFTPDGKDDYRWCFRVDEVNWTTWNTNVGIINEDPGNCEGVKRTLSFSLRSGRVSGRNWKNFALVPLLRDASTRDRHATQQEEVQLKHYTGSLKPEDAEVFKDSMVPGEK

Row | IC50 [nM] | Compound
1 | 230 | Cc1cc(CNC(=O)/C=C/c2ccc(C(F)(F)F)nc2N2CCCCC2)ccc1NS(C)(=O)=O [Example 184, N-(4-Methanesulfonylamino-3-methyl-benzyl)-3-(2-piperid-1-yl-6-trifluoromethyl-pyridin-3-yl)-acrylamide]
2 | 200 | C#Cc1cc(CNC(=O)/C=C/c2ccc(C(F)(F)F)nc2SC(C)C)cc(F)c1NS(C)(=O)=O [Example 177, N-(3-Ethynyl-5-fluoro-4-methanesulfonylamino-benzyl)-3-(2-isopropylthio-6-trifluoromethyl-pyridin-3-yl)-acrylamide]
3 | 120 | C[C@@H](NC(=O)/C=C/c1ccc(C(F)(F)F)nc1N1CCCCC1)c1cc(F)c(NS(C)(=O)=O)c(F)c1 [Example 239, (R)—N-[1-(3,5-Difluoro-4-methanesulfonylamino-phenyl)-ethyl]-3-(2-piperid-1-yl-6-trifluoromethyl-pyridin-3-yl)-acrylamide]
4 | 76 | CCCCc1nc(C(F)(F)F)ccc1/C=C/C(=O)NCc1ccc(NS(C)(=O)=O)c(C)c1 [Example 194, 3-(2-Butyl-6-trifluoromethyl-pyridin-3-yl)-N-(4-methanesulfonylamino-3-methyl-benzyl)-acrylamide]
5 | 280 | C=Cc1cc(CNC(=O)/C=C/c2ccc(C(F)(F)F)nc2Oc2ccccc2)cc(F)c1NS(C)(=O)=O [Example 133, N-(3-Fluoro-4-methanesulfonylamino-5-vinyl-benzyl)-3-(2-phenoxy-6-trifluoromethyl-pyridin-3-yl)-acrylamide]
6 | 340 | CS(=O)(=O)Nc1ccc(CNC(=O)/C=C/c2ccc(C(F)(F)F)nc2CCc2ccccc2)cc1 [Example 264, N-(4-Methanesulfonylamino-benzyl)-3-(2-phenethyl-6-trifluoromethyl-pyridin-3-yl)-acrylamide]
7 | 2300 | C#Cc1cc(CNC(=O)/C=C/c2ccc(C(F)(F)F)nc2C#CCN(CC)CC)cc(F)c1NS(C)(=O)=O [Example 190]
8 | 160 | CCC/C(=C\C(=O)N[C@H](C)c1cc(F)c(NS(C)(=O)=O)c(F)c1)c1ccc(C(F)(F)F)nc1CCC [Example 278, (E)-3-(2-Propyl-6-trifluoromethyl-pyridin-3-yl)-hex-2-enoic acid [1-(3,5-difluoro-4-methanesulfonylamino-phenyl)-ethyl]-amide]
9 | 24 | CC(C)Cc1nc(C(F)(F)F)ccc1/C=C/C(=O)N[C@H](C)c1ccc(NS(C)(=O)=O)c(F)c1 [Example 175, (R)—N-[1-(3-Fluoro-4-methanesulfonylamino-phenyl)-ethyl]-3-(2-isobutyl-6-trifluoromethyl-pyridin-3-yl)-acrylamide]
10 | 240 | C#Cc1cc(CNC(=O)/C=C/c2ccc(C(F)(F)F)nc2OCC(F)(F)F)cc(F)c1NS(C)(=O)=O [Example 84, N-(3-Ethynyl-5-fluoro-4-methansulfonylamino-benzyl)-3-[2-(2,2,2-trifluoro-ethoxy)-6-trifluoromethyl-pyridin-3-yl]-acrylamide]
11 | 1600 | CC(C)(C)c1ccc(OCC(=O)NCc2ccc(NS(C)(=O)=O)c(F)c2)c(Br)n1 [Examples 28]
12 | > 10000 | CS(=O)(=O)Nc1ccc(CNC(=O)/C=C/c2cccnc2N2CCOCC2)cc1F [Example 50, N-(5-fluoro-4-methanesulfonylamino-benzyl)-3-(2-morpholin-4-yl-pyridin-3-yl)-acrylamide]
13 | 120 | C#Cc1cc(CNC(=O)/C=C/c2ccc(C(F)(F)F)nc2Oc2ccccc2)cc(F)c1NS(C)(=O)=O [Example 78, N-(3-Ethynyl-5-fluoro-4-methanesulfonylamino-benzyl)-3-(2-phenoxy-6-trifluoromethyl-pyridin-3-yl)-acrylamide]
14 | 180 | C#Cc1cc(CNC(=O)/C=C/c2ccc(C(F)(F)F)nc2N2CCC(OC)C2)cc(F)c1NS(C)(=O)=O (stereo not shown) [Example 85]
15 | 35 | CCCCNc1nc(C(F)(F)F)ccc1/C=C/C(=O)NCc1cc(F)c(NS(C)(=O)=O)c(F)c1 [Example 202, N-(3,5-Difluoro-4-methanesulfonylamino-benzyl)-3-(2-butylamino-6-trifluoromethyl)-pyridin-3-yl-acrylamide]
16 | 33 | C#Cc1cc(CNC(=O)/C=C/c2ccc(C(F)(F)F)nc2CCCC)cc(F)c1NS(C)(=O)=O [Example 144, 3-(2-Butyl-6-trifluoromethyl-pyridin-3-yl)-N-(3-ethynyl-5-fluoro-4-methanesulfonylamino-benzyl)-acrylamide]
17 | 1400 | CCCCc1nc(C(F)(F)F)ccc1C#CC(=O)NCc1ccc(NS(C)(=O)=O)cc1 [Example 266, 3-(2-Butyl-6-trifluoromethyl-pyridin-3-yl)-propynoic acid 4-methanesulfonylamino-benzylamide]
18 | 400 | CS(=O)(=O)Nc1c(F)cc(CNC(=O)/C=C/c2ccc(C(F)(F)F)nc2CCc2ccccc2)cc1C(F)(F)F [Example 189, N-(3-Fluoro-4-methanesulfonylamino-5-trifluoromethyl-benzyl)-3-(2-phenethyl-6-trifluoromethyl-pyridin-3-yl)-acrylamide]
19 | 1100 | CS(=O)(=O)Nc1ccc(CNC(=O)/C=C/c2ccc(C(F)(F)F)nc2N2CCCCC2)cc1F [Example 26, N-(3-Fluoro-4-methanesulfonylamino-benzyl)-3-(2-piperid-1-yl-6-trifluoromethyl-pyridinyl-3-yl)-acrylamide]
20 | 98 | CCCCCc1nc(C(F)(F)F)ccc1/C=C/C(=O)NCc1cc(C)c(NS(C)(=O)=O)c(F)c1 [Example 214, N-(3-Fluoro-4-methanesulfonylamino-5-methyl-benzyl)-3-(2-pentyl-6-trifluoromethyl)-pyridin-3-yl-acrylamide]
21 | 1100 | CS(=O)(=O)Nc1c(F)cc(CNC(=O)/C=C/c2ccc(C(F)(F)F)nc2N2CCOCC2)cc1F [Example 21, N-(3,5-Difluoro-4-methanesulfonylamino-benzyl)-3-(2-morpholin-4-yl-6-trifluoromethyl-pyridin-3-yl)-acrylamide]
22 | 180 | CS(=O)(=O)Nc1ccc(CNC(=O)/C=C/c2ccc(C(F)(F)F)nc2CCc2ccccc2)cc1F [Example 141, N-(3-Fluoro-4-methanesulfonylamino-benzyl)-3-(2-phenethyl-6-trifluoromethyl-pyridin-3-yl)-acrylamide]
23 | 330 | CCCc1nc(C(F)(F)F)ccc1/C=C/C(=O)NCc1ccc(NS(C)(=O)=O)cc1 [Example 252, N-(4-Methanesulfonylamino-benzyl)-3-(2-propyl-6-trifluoromethyl-pyridin-3-yl)-acrylamide]
24 | 43 | C#Cc1cc(CNC(=O)/C=C/c2ccc(C(F)(F)F)nc2CC(C)CC)cc(F)c1NS(C)(=O)=O (stereo not shown) [Example 152, N-(3-Ethynyl-5-fluoro-4-methanesulfonylamino-benzyl)-3-[2-(2-methyl-butyl)-6-trifluoromethyl-pyridin-3-yl]-acrylamide]
25 | 160 | C[C@@H](NC(=O)/C=C/c1ccc(C(F)(F)F)nc1N(C)c1ccccc1)c1ccc(NS(C)(=O)=O)c(F)c1 [Example 165, (R)—N-[1-(3-Fluoro-4-methanesulfonylamino-phenyl)-ethyl]-3-[2-(methyl-phenylamino)-6-trifluoromethyl-pyridin-3-yl]-acrylamide]
26 | 80 | Cc1cc(CNC(=O)/C=C/c2ccc(C(F)(F)F)nc2C(C)C)ccc1NS(C)(=O)=O [Example 233, N-(4-methanesulfonylamino-3-methyl-benzyl)-3-(2-isopropyl-6-trifluoromethyl-pyridin-3-yl)-acrylamide]
27 | 200 | C#Cc1cc(CNC(=O)/C=C/c2cc(Cl)c(C(F)(F)F)nc2CCCC)cc(F)c1NS(C)(=O)=O [Example 76, 3-(2-Butyl-5-chloro-6-trifluoromethyl-pyridin-3-yl)-N-(3-ethynyl-5-fluoro-4-methanesulfonylamino-benzyl)-acrylamide]
28 | 110 | COCCNc1nc(C(F)(F)F)ccc1/C=C/C(=O)N[C@H](C)c1ccc(NS(C)(=O)=O)c(F)c1 [Example 212, (R)—N-[1-(3-Fluoro-4-methanesulfonylamino-phenyl)-ethyl]-3-[2-(2-methoxy-ethylamino)-6-trifluoromethyl-pyridin-3-yl]-acrylamide]
29 | 3500 | 2-(2-piperid-1-yl-6-chloro-pyridinyl-3-yloxy)-N-(3-fluoro-4-methanesulfonylamino-benzyl)-acetamide [Example 13]
30 | 21 | CCNc1nc(C(F)(F)F)ccc1/C=C/C(=O)NCc1cc(C)c(NS(C)(=O)=O)c(F)c1 [Example 258, 3-(2-Ethylamino-6-trifluoromethyl-pyridin-3-yl)-N-(3-fluoro-4-methanesulfonylamino-5-methyl-benzyl)-acrylamide]

Row | Compound | IC50 [nM]
31 | C#Cc1cc(CNC(=O)/C=C/c2ccc(C(F)(F)F)nc2OCC(C)C)cc(F)c1NS(C)(=O)=O [Example 74, N-(3-Ethynyl-5-fluoro-4-methanesulfonylamino-benzyl)-3-(2-isobutoxy-6-trifluoromethyl-pyridin-3-yl)-acrylamide] | 510
32 | CC(C)CCOc1nc(C(F)(F)F)ccc1/C=C/C(=O)NCc1cc(F)c(NS(C)(=O)=O)c(C#N)c1 [Example 118, N-(3-Cyano-5-fluoro-4-methanesulfonylamino-benzyl)-3-[2-(3-methyl-butoxy)-6-trifluoromethyl-pyridin-3-yl]-acrylamide] | 200
33 | C#Cc1cc(CNC(=O)/C=C/c2ccc(C(F)(F)F)nc2OC2CCCC2)cc(F)c1NS(C)(=O)=O [Example 92, 3-(2-Cyclopentoxy-6-trifluoromethyl-pyridin-3-yl)-N-(3-ethynyl-5-fluoro-4-methanesulfonylamino-benzyl)-acrylamide] | 520
34 | CCC(C)Oc1nc(C(F)(F)F)ccc1/C=C/C(=O)NCc1cc(F)c(NS(C)(=O)=O)c(C#N)c1 (stereo not shown) [Example 106, 3-(2-sec-Butoxy-6-trifluoromethyl-pyridin-3-yl)-N-(3-cyano-5-fluoro-4-methanesulfonylamino-benzyl)-acrylamide] | 83

— patent US7858621B2 (Amorepacific Corporation, priority 2006, dated 2010)
